Results on one compound are retold here after BindingDB's records for doi:10.1016/j.bmcl.2016.04.018 (Merck Research Laboratories, 2016).

SMILES strings stand for the structures.

This data set can be described thus: Inhibition of human ERG expressed in HEK293 cells assessed as reduction in S35-MK-0499 binding.

By IC50 is commonly meant the midpoint of a concentration-inhibition curve.

In the case of `O=C(Nc1cccc(Cl)c1)N1CCOc2ccc(-c3ccncc3)cc2C1`, the IC50 was 8.34 µM.
